We go through twelve compounds from PMC10780633, “Novel Multi-Target Agents Based on the Privileged Structure of 4-Hydroxy-2-quinolinone” (Molecules, 2023).

The nature of assay [1]: Interaction with the stable free radical DPPH (reducing activity). Particulars: for Interaction with the Free Radical DPPH (%): 100 μM; for DPPH radical scavenging activity, time not specified: reaction time not given. The protocol:
(§1) In this work, the carboxamides 3a–3u, the quinolinone–cinnamic or benzoic acid hybrids 11a–11g and the reverse amides 16a–16c were tested for their antioxidant activity via five in vitro techniques; (i) the interaction with the stable free radical 2,2-diphenyl-1-picrylhydrazyl (DPPH); (ii) the inhibition of lipid peroxidation; (iii) the hydroxyl radical scavenging ability; (iv) the 2,2-azino-bis(3-ethylbenzothiazoline-6-sulfonic acid (ABTS) radical cation (ABTS·^+) reduction; and (v) the superoxide anion radical scavenging ability.
For orientation: Loss of DPPH colour is used to gauge radical scavenging.

Assay [2] can be described thus: Inhibition of lipid peroxidation of linoleic acid induced by AAPH radical. Particulars: 100 μM. The protocol:
as §1
The assay for the determination of the inhibition of linoleic acid peroxidation induced by the free radical initiator […](2-amidinopropane) dihydrochloride (AAPH) was performed according to the methods of Hadjipavlou-Litina et al., which we have also used in our previous works.

Assay [3] is described as follows: Competition with DMSO for hydroxyl radicals. To be noted: 0.1 mM. As for the experimental part: as §1
The assay was performed according to the methods of Pontiki et al. Trolox was used as a reference compound [78].

A short description of assay [4]: ABTS radical cation decolorization assay. To be noted: 0.1 mM. As for the experimental part: as §1
The experimental technique used in this section was performed according to the methods of Pontiki et al.. The results were compared to the appropriate standard inhibitor Trolox.

Assay [5] can be described thus: Non-enzymatic superoxide anion radical scavenging assay (PMS). Particulars: 0.1 mM. The protocol:
as §1
The experimental technique used for this assay was performed according to our previous works. Caffeic acid was used as an appropriate standard.

For another assay, the target named is T1, soybean lipoxygenase (Glycine max, UniProt P08170).
T1 construct: purchased Sigma Chemical, Co. (St. Louis, MO, USA)
T1 sequence (P08170 1-839): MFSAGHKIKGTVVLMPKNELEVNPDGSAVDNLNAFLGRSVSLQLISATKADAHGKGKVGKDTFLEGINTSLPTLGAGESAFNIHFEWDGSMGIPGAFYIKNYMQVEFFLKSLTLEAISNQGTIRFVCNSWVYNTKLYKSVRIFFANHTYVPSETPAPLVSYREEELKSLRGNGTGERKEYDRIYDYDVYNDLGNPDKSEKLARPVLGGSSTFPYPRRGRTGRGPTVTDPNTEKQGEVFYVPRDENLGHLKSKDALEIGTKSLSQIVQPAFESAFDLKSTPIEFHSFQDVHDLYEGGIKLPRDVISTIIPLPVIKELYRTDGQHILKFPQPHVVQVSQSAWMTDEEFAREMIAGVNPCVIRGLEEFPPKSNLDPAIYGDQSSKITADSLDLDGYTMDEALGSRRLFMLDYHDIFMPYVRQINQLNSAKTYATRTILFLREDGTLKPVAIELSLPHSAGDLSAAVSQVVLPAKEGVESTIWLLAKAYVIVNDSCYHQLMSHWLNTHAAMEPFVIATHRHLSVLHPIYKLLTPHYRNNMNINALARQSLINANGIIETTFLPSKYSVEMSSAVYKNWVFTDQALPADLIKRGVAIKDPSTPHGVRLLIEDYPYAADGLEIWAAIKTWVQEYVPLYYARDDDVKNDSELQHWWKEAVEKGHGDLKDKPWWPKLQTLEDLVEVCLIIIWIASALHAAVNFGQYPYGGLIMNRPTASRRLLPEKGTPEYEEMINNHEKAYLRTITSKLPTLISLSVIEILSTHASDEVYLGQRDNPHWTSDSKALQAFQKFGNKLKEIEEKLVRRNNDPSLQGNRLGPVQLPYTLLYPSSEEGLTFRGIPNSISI
As to the kind of experiment: Soybean LOX inhibition in vitro (UV absorbance-based assay). The class given is biochemical. As for the experimental part:
For this study, the UV absorbance-based soybean LOX assay was used.
The assay for the determination of the inhibition of soybean LOX was performed according to the methods of Hadjipavlou-Litina et al., which we have also used in our previous works.

As a reminder, the IC50 is the midpoint of a concentration-inhibition curve. Higher therefore signals weaker potency. The term inhibition denotes the share of the control response that was lost under treatment. A low value points to little suppression.

With `O=C(Nc1ccc(F)cc1)c1c(O)c2ccccc2n(-c2ccccc2)c1=O` [Compound 3s, N-(4-fluorophenyl)-4-hydroxy-2-oxo-1-phenyl-1,2-dihydroquinoline-3-carboxamide], the “Interaction with the Free Radical DPPH (%)” value in assay [1] (20 min) is given as 21.2%; in assay [1] (60 min), 8.1%. In addition, in assay [1], the “DPPH radical scavenging activity, time not specified” value is “inactive”. Moreover, in assay [2], the “Inhibition of Lipid Peroxidation of Linoleic Acid Induced by AAPH Radical (%)” value (shortened to “Inhibition of Lipid Peroxidation … (%)”) was 28.9%. The “OH% (hydroxyl radical scavenging)” value in assay [3] came out at 100%. Moreover, the “ABTS% (ABTS radical cation decolorization)” value (from here on “ABTS%”) in assay [4] is given as “no”. Also, the “PMS% (superoxide anion radical scavenging)” value (from here on “PMS%”) in assay [5] is given as “no”. This compound also had an IC50 against soybean lipoxygenase of 10 µM.
Take `Cc1ccccc1NC(=O)c1c(O)c2ccccc2n(C)c1=O` [Compound 3k, 4-hydroxy-1-methyl-2-oxo-N-(o-tolyl)-1,2,dihydroquinoline-3carboxamide]: the figures for the “Interaction with the Free Radical DPPH (%)” value in assay [1] (20 min) and in assay [1] (60 min) were 1.4% and 11.8%, respectively. The “DPPH radical scavenging activity, time not specified” value in assay [1] is “inactive”. For the same compound, the “Inhibition of Lipid Peroxidation … (%)” value in assay [2] is 41.4%. For the same compound, the “OH% (hydroxyl radical scavenging)” value in assay [3] was “totally inactive and no”. The “ABTS%” value in assay [4] stood at 54.5%. In addition, in assay [5], the “PMS%” value amounted to 61.5%. Besides, on soybean lipoxygenase, the IC50 came to 315 µM.
As for `Cn1c(=O)c(C(=O)NCCc2ccc(O)cc2)c(O)c2ccccc21` [Compound 3o, 4-hydroxy-N-(4-hydroxyphenethyl)-1-methyl-2-oxo-1,2-dihydroquinoline-3-carboxamide], the “Interaction with the Free Radical DPPH (%)” value in assay [1] (20 min) was determined as 20.8%; in assay [1] (60 min), 8.0%. In assay [2], the “Inhibition of Lipid Peroxidation … (%)” value is 100%. In addition, the “OH% (hydroxyl radical scavenging)” value in assay [3] was determined as 44.3%. In addition, the “ABTS%” value in assay [4] came to 20.6%. Besides, in assay [5], the “PMS%” value is “no”. The “Inhibition of Soybean Lipoxygenase % at 0.1 mM” value on soybean lipoxygenase (0.1 mM) is “no”.
For the compound `Cn1c(=O)c(C(=O)Nc2ccncc2)c(O)c2ccccc21` [Compound 3t, 4-hydroxy-1-methyl-2-oxo-N-(pyridin-4-yl)-1,2-dihydroquinoline-3-carboxamide], the “Interaction with the Free Radical DPPH (%)” value in assay [1] (20 min) was 19.7%; in assay [1] (60 min) it was 9.5%. Moreover, the “Inhibition of Lipid Peroxidation … (%)” value in assay [2] was 100%. Moreover, in assay [3], the “OH% (hydroxyl radical scavenging)” value was “inactive and no”. Besides, the “ABTS%” value in assay [4] is given as “no”. For the same compound, the “PMS%” value in assay [5] was “no”. Also, the “Inhibition of Soybean Lipoxygenase % at 0.1 mM” value at soybean lipoxygenase (0.1 mM) is “inactive and no”.
Regarding `CCCCCCCNC(=O)c1c(O)c2ccccc2n(C)c1=O` [Compound 3e, N-heptyl-4-hydroxy-1-methyl-2-oxo-1,2-dihydroquinoline-3-carboxamide], the “Interaction with the Free Radical DPPH (%)” value in assay [1] (20 min) came to 6.6%; in assay [1] (60 min), 12.2%. In assay [2], the “Inhibition of Lipid Peroxidation … (%)” value is “inactive and no”. The “OH% (hydroxyl radical scavenging)” value in assay [3] came out at 86.1%. In addition, the “ABTS%” value in assay [4] is given as 2.6%. Besides, the “PMS%” value in assay [5] is listed as 66.6%. Moreover, the “Inhibition of Soybean Lipoxygenase % at 0.1 mM” value at soybean lipoxygenase (0.1 mM) was “no activity and no”.
Consider `CC1CCCCC1NC(=O)c1c(O)c2ccccc2n(-c2ccccc2)c1=O` (centres unmarked) [Compound 3i, 4-hydroxy-N-(2-methylcyclohexyl)-2-oxo-1-phenyl-1,2-dihydroquinoline-3-carboxamide], for which the “Interaction with the Free Radical DPPH (%)” value is 5.2% in assay [1] (20 min) and 3.7% in assay [1] (60 min). For the same compound, the “Inhibition of Lipid Peroxidation … (%)” value in assay [2] came to 36%. Further, the “OH% (hydroxyl radical scavenging)” value in assay [3] is 78.1%. Further, the “ABTS%” value in assay [4] is recorded as “no”. The “PMS%” value in assay [5] was “no”. Besides, the “Inhibition of Soybean Lipoxygenase % at 0.1 mM” value on soybean lipoxygenase (0.1 mM) is “inactive and no”.
Turning to `Cc1ccc(NC(=O)c2c(O)c3ccccc3n(-c3ccccc3)c2=O)cc1` [Compound 3r, 4-hydroxy-2-oxo-1-phenyl-N-(p-tolyl)-1,2-dihydroquinoline-3-carboxamide], the “Interaction with the Free Radical DPPH (%)” value in assay [1] (20 min) is reported as 12.1%. The “Interaction with the Free Radical DPPH (%)” value in assay [1] (60 min) is 1.2%. In assay [1], the “DPPH radical scavenging activity, time not specified” value is “inactive”. In addition, the “Inhibition of Lipid Peroxidation … (%)” value in assay [2] is recorded as 17.1%. In addition, the “OH% (hydroxyl radical scavenging)” value in assay [3] is recorded as 50.7%. Further, the “ABTS%” value in assay [4] was “no”. Besides, the “PMS%” value in assay [5] is on record as “no”. On soybean lipoxygenase (0.1 mM), the “Inhibition of Soybean Lipoxygenase % at 0.1 mM” value stood at 37.4% and the inhibition at 100 µM was 37.5%.
Consider `CC1CCCCC1NC(=O)c1c(O)c2ccccc2n(C)c1=O` (centres unmarked) [Compound 3h, 4-hydroxy-1-methyl-N-(2-methylcyclohexyl)-2-oxo-1,2-dihydroquinoline-3-carboxamide], for which the “Interaction with the Free Radical DPPH (%)” value turned out to be 6.0% in assay [1] (20 min) and 8.1% in assay [1] (60 min). Besides, in assay [2], the “Inhibition of Lipid Peroxidation … (%)” value came out at 31%. Besides, in assay [3], the “OH% (hydroxyl radical scavenging)” value worked out at 78.6%. Moreover, the “ABTS%” value in assay [4] is “no”. In addition, in assay [5], the “PMS%” value is reported as “no”. In addition, at soybean lipoxygenase, it took 10 µM to reach half-maximal inhibition (IC50).
In the case of `O=C(NCCc1ccc(O)cc1)c1c(O)c2ccccc2n(-c2ccccc2)c1=O` [Compound 3n, 4-hydroxy-N-(4-hydroxyphenethyl)-2-oxo-1-phenyl-1,2-dihydroquinoline-3-carboxamide], the “Interaction with the Free Radical DPPH (%)” value is listed as 13.9% in assay [1] (20 min) and 19.2% in assay [1] (60 min). In addition, the “Inhibition of Lipid Peroxidation … (%)” value in assay [2] was 100%. In addition, the “OH% (hydroxyl radical scavenging)” value in assay [3] turned out to be 14.9%. Further, the “ABTS%” value in assay [4] was “no”. Moreover, the “PMS%” value in assay [5] is on record as “no”. The compound further yielded an IC50 at soybean lipoxygenase of 85 µM.
Take `Cn1c(=O)c(C(=O)Nc2ccccc2O)c(O)c2ccccc21` [Compound 3j, 4-hydroxy-N-(2-hydroxyphenyl)-1-methyl-2-oxo-1,2-dihydroquinoline-3-carboxamide]: the “Interaction with the Free Radical DPPH (%)” value in assay [1] (20 min) is recorded as 32.5%; in assay [1] (60 min), 46.5%. Further, in assay [2], the “Inhibition of Lipid Peroxidation … (%)” value was 32.8%. Moreover, the “OH% (hydroxyl radical scavenging)” value in assay [3] was found to be 100%. Further, in assay [4], the “ABTS%” value came to 49.7%. Also, the “PMS%” value in assay [5] is “no”. Besides, inhibition at soybean lipoxygenase was half-maximal at 100 µM (IC50).
As for `O=C(Nc1ccc(O)cc1)c1c(O)c2ccccc2n(-c2ccccc2)c1=O` [Compound 3g, 4-hydroxy-N-(4-hydroxyphenyl)-2-oxo-1-phenyl-1,2-dihydroquinoline-3-carboxamide], the results for the “Interaction with the Free Radical DPPH (%)” value in assay [1] (20 min) and in assay [1] (60 min) were 40.7% and 51.7%, respectively. In addition, in assay [2], the “Inhibition of Lipid Peroxidation … (%)” value was determined as 100%. Besides, the “OH% (hydroxyl radical scavenging)” value in assay [3] worked out at 67.7%. In addition, in assay [4], the “ABTS%” value is 72.4%. In addition, the “PMS%” value in assay [5] is recorded as “no”. Further, the half-maximal inhibitory concentration (IC50) against soybean lipoxygenase amounted to 27.5 µM.
As to `Cc1ccc(NC(=O)c2c(O)c3ccccc3n(C)c2=O)cc1` [Compound 3l, 4-hydroxy-1-methyl-2-oxo-N-(p-tolyl)-1,2-dihydroquinoline-3-carboxamide], the “Interaction with the Free Radical DPPH (%)” value in assay [1] (20 min) and in assay [1] (60 min) was 2.6% each time. In assay [1], the “DPPH radical scavenging activity, time not specified” value was “inactive”. For the same compound, the “Inhibition of Lipid Peroxidation … (%)” value in assay [2] is “no”. Besides, the “OH% (hydroxyl radical scavenging)” value in assay [3] worked out at 53.7%. For the same compound, in assay [4], the “ABTS%” value was “no”. For the same compound, the “PMS%” value in assay [5] is listed as “no”. The compound also had an IC50 against soybean lipoxygenase of 45 µM.
